Common to all, as to assay type: biochemical
The target in one experiment is mMASP-2 (Mus musculus (Mouse), UniProt Q91WP0). Nature of the experiment: Enzymatic inhibition of mMASP-2. Particulars: read-out: mMASP-2 Ki.
The target of the next experiment is human α-thrombin (Homo sapiens (Human), UniProt P00734). Put plainly: Enzymatic assay for thrombin (Boc-VPR-AMC substrate). Particulars: for pKi: read-out: Thrombin Ki; for Ki: Thrombin Ki (μM).
For another experiment, the target named is MASP-2 (CCP1-CCP2-SP) (Homo sapiens (Human), UniProt O00187). Put plainly: biochemical. Particulars: for MASP-2 vs. thrombin selectivity: selectivity for MASP-2 inhibition versus thrombin.

pKi: −log10 of the molar value. Where a name gives a salt, the structure may show the parent alone. Read-outs that look alike come from different tables or passages of the source.

Chain of mMASP-2 (Q91WP0 20-685): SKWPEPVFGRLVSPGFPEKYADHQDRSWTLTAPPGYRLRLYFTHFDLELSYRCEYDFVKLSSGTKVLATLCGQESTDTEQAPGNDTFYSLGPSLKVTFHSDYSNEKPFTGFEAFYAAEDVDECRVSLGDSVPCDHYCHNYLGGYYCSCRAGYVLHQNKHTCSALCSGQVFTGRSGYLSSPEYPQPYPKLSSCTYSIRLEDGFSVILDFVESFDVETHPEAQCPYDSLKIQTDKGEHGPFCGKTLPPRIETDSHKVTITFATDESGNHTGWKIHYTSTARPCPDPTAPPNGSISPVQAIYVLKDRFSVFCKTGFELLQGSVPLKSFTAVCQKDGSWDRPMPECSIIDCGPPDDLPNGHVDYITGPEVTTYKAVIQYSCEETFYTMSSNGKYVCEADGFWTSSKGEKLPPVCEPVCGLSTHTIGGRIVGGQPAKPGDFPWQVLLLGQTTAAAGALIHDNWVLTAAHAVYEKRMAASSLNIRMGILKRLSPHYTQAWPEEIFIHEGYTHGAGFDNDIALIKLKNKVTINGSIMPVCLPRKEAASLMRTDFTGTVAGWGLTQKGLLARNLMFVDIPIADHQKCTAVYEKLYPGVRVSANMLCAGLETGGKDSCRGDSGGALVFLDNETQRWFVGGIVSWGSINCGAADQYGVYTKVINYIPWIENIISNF
Chain of MASP-2 (CCP1-CCP2-SP) (O00187 445-686): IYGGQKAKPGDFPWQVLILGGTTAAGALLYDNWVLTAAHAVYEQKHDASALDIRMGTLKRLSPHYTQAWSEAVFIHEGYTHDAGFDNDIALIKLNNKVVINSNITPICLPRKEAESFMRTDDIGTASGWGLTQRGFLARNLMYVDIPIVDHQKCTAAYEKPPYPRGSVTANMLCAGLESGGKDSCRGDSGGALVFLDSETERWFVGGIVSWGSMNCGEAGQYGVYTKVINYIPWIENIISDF

Turning to `Cc1cc(Cl)cc(CNC(=O)[C@H](C)NC(=O)[C@H](N)CCc2ccccc2)c1O` [compound 1299, (R)-2-Amino-N—((S)-1-((5-chloro-2-hydroxy-3-methylbenzyl)amino)-1-oxopropan-2-yl)-4-phenylbutanamide Hydrochloride], the pKi on mMASP-2 is 4.60 to 5.00; on human α-thrombin it was < 4.60; on MASP-2 (CCP1-CCP2-SP) (read-out: MASP-2 Ki), > 6.30. Moreover, the “MASP-2 vs. thrombin selectivity” value on MASP-2 (CCP1-CCP2-SP) was “**** (≥100-fold)”.
For the compound `C[C@H](NC(=O)[C@H]1C[C@H](c2ccccc2)CN1)C(=O)NCc1ccc(C(=N)N)c(F)c1` [compound 1300, (2R,4R)—N—((S)-1-((4-Carbamimidoyl-3-fluorobenzyl)amino)-1-oxopropan-2-yl)-4-phenylpyrrolidine-2-carboxamide Di-trifluoroacetate salt], the pKi at mMASP-2 and on MASP-2 (CCP1-CCP2-SP) (read-out: MASP-2 Ki) was > 6.30 each time. On human α-thrombin, the Ki was 2.5 to 10 µM. Further, the “MASP-2 vs. thrombin selectivity” value on MASP-2 (CCP1-CCP2-SP) was “*** (≥25 to <100-fold)”.
For the compound `C[C@H](NC(=O)[C@H]1C[C@H](c2ccccc2)CN1)C(=O)NCc1cc(Cl)c[nH]c1=O` [compound 1301, (2R,4R)—N—((S)-1-(((5-Chloro-2-oxo-1,2-dihydropyridin-3-yl)methyl)amino)-1-oxopropan-2-yl)-4-phenylpyrrolidine-2-carboxamide Hydrochloride], the pKi at mMASP-2 is < 4.60; on human α-thrombin, < 4.60; on MASP-2 (CCP1-CCP2-SP), 5.00 to 5.60.
As to `CCc1cccc([C@H]2CN[C@@H](C(=O)N[C@@H](C)C(=O)NCc3ccc(C(=N)N)cc3)C2)c1` [compound 1302, (2R,4S)—N—((S)-1-((4-Carbamimidoylbenzyl)amino)-1-oxopropan-2-yl)-4-(3-ethylphenyl)pyrrolidine-2-carboxamide Dihydrochloride], the pKi at mMASP-2 and on MASP-2 (CCP1-CCP2-SP) (read-out: MASP-2 Ki) was > 6.30 throughout. At human α-thrombin, this compound came in with a Ki of 0.5 to 2.5 µM. Besides, the “MASP-2 vs. thrombin selectivity” value at MASP-2 (CCP1-CCP2-SP) is listed as “*** (≥25 to <100-fold)”.
`CCc1cccc([C@H]2CN[C@@H](C(=O)N[C@@H](C)C(=O)NCc3ccc(N)nc3C)C2)c1` [compound 1303, (2R,4S)—N—((S)-1-(((6-Amino-2-methylpyridin-3-yl)methyl)amino)-1-oxopropan-2-yl)-4-(3-ethylphenyl)pyrrolidine-2-carboxamide Dihydrochloride]: the pKi on mMASP-2 was 5.00 to 5.60; on human α-thrombin, < 4.60; at MASP-2 (CCP1-CCP2-SP) (read-out: MASP-2 Ki) it was > 6.30. In addition, the “MASP-2 vs. thrombin selectivity” value at MASP-2 (CCP1-CCP2-SP) was “*** (≥25 to <100-fold)”.
For the compound `Cc1nc(N)ccc1CNC(=O)[C@H](C)NC(=O)[C@H]1C[C@H](Cc2ccccc2)CN1` [compound 1304, (2R,4S)—N—((S)-1-(((6-Amino-2-methylpyridin-3-yl)methyl)amino)-1-oxopropan-2-yl)-4-benzylpyrrolidine-2-carboxamide Dihydrochloride], the pKi was 5.60 to 6.30 on mMASP-2 and > 6.30 on MASP-2 (CCP1-CCP2-SP) (read-out: MASP-2 Ki). Moreover, the Ki on human α-thrombin lay within 0.5 to 2.5 µM. The “MASP-2 vs. thrombin selectivity” value at MASP-2 (CCP1-CCP2-SP) is reported as “*** (≥25 to <100-fold)”.
Turning to `C[C@H](NC(=O)[C@H]1C[C@H](c2ccccc2)CN1)C(=O)NCc1ccc(C(=N)NC(=O)OCC(F)(F)F)cc1` [compound 1305, 2,2,2-Trifluoroethyl (imino(4-(((S)-2-((2R,4R)-4-phenylpyrrolidine-2-carboxamido)propanamido)methyl)phenyl)methyl)carbamate], the pKi on mMASP-2 was > 6.30; at human α-thrombin, < 4.60; at MASP-2 (CCP1-CCP2-SP), 5.60 to 6.30. Further, the “MASP-2 vs. thrombin selectivity” value on MASP-2 (CCP1-CCP2-SP) was “** (≥5.0 to <25-fold)”.
As for `C[C@H](NC(=O)[C@H]1C[C@H](Cc2ccccc2)CN1)C(=O)NCc1ccc(C(=N)N)cc1` [compound 1306, (2R,4S)-4-Benzyl-N-((S)-1-((4-carbamimidoylbenzyl)amino)-1-oxopropan-2-yl)pyrrolidine-2-carboxamide Dihydrochloride], the pKi at mMASP-2, at human α-thrombin and on MASP-2 (CCP1-CCP2-SP) (read-out: MASP-2 Ki) was > 6.30 each time. The “MASP-2 vs. thrombin selectivity” value on MASP-2 (CCP1-CCP2-SP) is given as “* (≥1.0 to <5.0-fold)”.
In the case of `Cc1cc(Cl)cc(CNC(=O)[C@H](C)NC(=O)[C@H]2C[C@H](Cc3ccccc3)CN2)c1O` [compound 1307, (2R,4S)-4-Benzyl-N-((S)-1-((5-chloro-2-hydroxy-3-methylbenzyl)amino)-1-oxopropan-2-yl)pyrrolidine-2-carboxamide Hydrochloride], the values for the pKi on mMASP-2, at human α-thrombin and at MASP-2 (CCP1-CCP2-SP) (read-out: MASP-2 Ki) were > 6.30, < 4.60 and > 6.30, respectively. The “MASP-2 vs. thrombin selectivity” value at MASP-2 (CCP1-CCP2-SP) is reported as “**** (≥100-fold)”.
For `Cc1nc(N)ccc1CNC(=O)[C@H](C)NC(=O)[C@H]1C[C@H](c2ccccc2)CCN1` [compound 1308, (2R,4R)—N—((S)-1-(((6-Amino-2-methylpyridin-3-yl)methyl)amino)-1-oxopropan-2-yl)-4-phenylpiperidine-2-carboxamide Dihydrochloride], at mMASP-2, the pKi is 5.60 to 6.30. For the same compound, the Ki on human α-thrombin lay within 10 to 25 µM. Further, at MASP-2 (CCP1-CCP2-SP), the pKi was 5.60 to 6.30 and the “MASP-2 vs. thrombin selectivity” value is reported as “** (≥5.0 to <25-fold)”.
Turning to `Cc1nc(N)ccc1CNC(=O)[C@H](C)NC(=O)[C@H]1CN(c2cccc3ccccc23)CCN1` [compound 1309, (R)—N—((S)-1-(((6-Amino-2-methylpyridin-3-yl)methyl)amino)-1-oxopropan-2-yl)-4-(naphthalen-1-yl)piperazine-2-carboxamide Dihydrochloride], the results for the pKi at mMASP-2, on human α-thrombin and at MASP-2 (CCP1-CCP2-SP) (read-out: MASP-2 Ki) were > 6.30, < 4.60 and > 6.30, respectively. For the same compound, the “MASP-2 vs. thrombin selectivity” value on MASP-2 (CCP1-CCP2-SP) is reported as “**** (≥100-fold)”.
As to `Cc1nc(N)ccc1CNC(=O)[C@H](C)NC(=O)[C@H]1C[C@@H](Oc2ccccc2)CN1` [compound 1310, (2R,4R)—N—((S)-1-(((6-Amino-2-methylpyridin-3-yl)methyl)amino)-1-oxopropan-2-yl)-4-phenoxypyrrolidine-2-carboxamide Dihydrochloride], the values for the pKi on mMASP-2, on human α-thrombin and on MASP-2 (CCP1-CCP2-SP) were < 4.60, < 4.60 and 5.60 to 6.30, respectively. Moreover, the “MASP-2 vs. thrombin selectivity” value on MASP-2 (CCP1-CCP2-SP) was “*** (≥25 to <100-fold)”.
For the compound `C[C@H](NC(=O)[C@H]1C[C@H](c2ccccc2)CN1)C(=O)NCc1cnc2[nH]ccc2c1` [compound 1311, (2R,4R)—N—((S)-1-(((1H-Pyrrolo[2,3-b]pyridin-5-yl)methyl)amino)-1-oxopropan-2-yl)-4-phenylpyrrolidine-2-carboxamide Dihydrochloride], the pKi on mMASP-2 was 5.00 to 5.60; at human α-thrombin it was < 4.60; on MASP-2 (CCP1-CCP2-SP) it was 5.00 to 5.60. For the same compound, the “MASP-2 vs. thrombin selectivity” value at MASP-2 (CCP1-CCP2-SP) is recorded as “* (≥1.0 to <5.0-fold)”.
For `C[C@H](NC(=O)[C@@H](CCc1ccccc1)NCCCc1cccc(O)c1)C(=O)NCc1ccc(C(=N)N)cc1` [compound 1312, (R)—N—((S)-1-((4-Carbamimidoylbenzyl)amino)-1-oxopropan-2-yl)-2-((3-(3-hydroxyphenyl)propyl)amino)-4-phenylbutanamide Di-trifluoroacetate salt], the pKi at mMASP-2, at human α-thrombin and at MASP-2 (CCP1-CCP2-SP) (read-out: MASP-2 Ki) was > 6.30 throughout. At MASP-2 (CCP1-CCP2-SP), the “MASP-2 vs. thrombin selectivity” value was “* (≥1.0 to <5.0-fold)”.
Regarding `C[C@H](NC(=O)[C@H](N)CCc1ccccc1)C(=O)NCc1cc(C#N)ccc1O` [compound 1314, (R)-2-Amino-N—((S)-1-((5-cyano-2-hydroxybenzyl)amino)-1-oxopropan-2-yl)-4-phenylbutanamide Trifluoroacetate salt], the negative-log Ki (pKi) at mMASP-2 is < 4.60; at human α-thrombin, < 4.60; at MASP-2 (CCP1-CCP2-SP), 4.60 to 5.00. Also, the “MASP-2 vs. thrombin selectivity” value on MASP-2 (CCP1-CCP2-SP) is on record as “* (≥1.0 to <5.0-fold)”.
Take `CC(C)c1cccc([C@H]2CN[C@@H](C(=O)N[C@@H](C)C(=O)NCc3ccc(C(=N)N)cc3)C2)c1` [compound 1316, (2R,4S)—N—((S)-1-((4-Carbamimidoylbenzyl)amino)-1-oxopropan-2-yl)-4-(3-isopropylphenyl)pyrrolidine-2-carboxamide Dihydrochloride]: the pKi at mMASP-2 and on MASP-2 (CCP1-CCP2-SP) (read-out: MASP-2 Ki) was > 6.30 throughout. For the same compound, at human α-thrombin, the Ki fell in the range of 0.5 to 2.5 µM. Besides, the “MASP-2 vs. thrombin selectivity” value at MASP-2 (CCP1-CCP2-SP) is “*** (≥25 to <100-fold)”.
On to `Cc1cc(Cl)cc(CNC(=O)[C@H](C)NC(=O)[C@H]2CN(c3cccc4ccccc34)CCN2)c1O` [compound 1317, (R)—N—((S)-1-((5-Chloro-2-hydroxy-3-methylbenzyl)amino)-1-oxopropan-2-yI)-4-(naphthalen-1-yl)piperazine-2-carboxamide Hydrochloride], for which the pKi was 5.60 to 6.30 at mMASP-2, < 4.60 on human α-thrombin and > 6.30 at MASP-2 (CCP1-CCP2-SP) (read-out: MASP-2 Ki).
Turning to `Cc1nc(N)ccc1CNC(=O)[C@H](C)NC(=O)[C@@H](CCc1ccccc1)NCCCc1cccc(O)c1` [compound 1319, (R)—N—((S)-1-(((6-Amino-2-methylpyridin-3-yl)methyl)amino)-1-oxopropan-2-yl)-2-((3-(3-hydroxyphenyl)propyl)amino)-4-phenylbutanamide Dihydrochloride salt], the results for the pKi at mMASP-2 and on MASP-2 (CCP1-CCP2-SP) (read-out: MASP-2 Ki) were 4.60 to 5.00 and > 6.30, respectively. Besides, the Ki on human α-thrombin was 2.5 to 10 µM. Further, the “MASP-2 vs. thrombin selectivity” value on MASP-2 (CCP1-CCP2-SP) was “** (≥5.0 to <25-fold)”.
For `Cc1nc(N)ccc1CNC(=O)[C@H](C)NC(=O)[C@H]1C[C@H](Cc2cccc(C(F)(F)F)c2)C(=O)N1` [compound 1320, (2R,4S)—N—((S)-1-(((6-Amino-2-methylpyridin-3-yl)methyl)amino)-1-oxopropan-2-yl)-5-oxo-4-(3-(trifluoromethyl)benzyl)pyrrolidine-2-carboxamide Di-trifluoroacetate salt] the same measures were 5.60 to 6.30, > 6.30, 0.5 to 2.5 µM and “** (≥5.0 to <25-fold)”.
Regarding `Cc1nc(N)ccc1CNC(=O)[C@@H](C)NC(=O)[C@H]1C[C@H](Cc2cccc(C(F)(F)F)c2)C(=O)N1` [compound 1321, (2R,4S)—N—((R)-1-(((6-Amino-2-methylpyridin-3-yl)methyl)amino)-1-oxopropan-2-yl)-5-oxo-4-(3-(trifluoromethyl)benzyl)pyrrolidine-2-carboxamide Di-trifluoroacetate salt], the pKi at mMASP-2 is < 4.60; at human α-thrombin it was < 4.60; at MASP-2 (CCP1-CCP2-SP), 4.60 to 5.00.

By pKi is commonly meant −log10 of the Ki, conventionally taken in molar units. The Ki is the dissociation constant of the complex between target and ligand, obtained from inhibition or displacement.

The values are drawn from US11584714B2 (priority 2018, dated 2023).
